The results in this text go back to patent US9481743B2, “Polyelectrolyte polymers, their manufacture and use” (priority 2013, dated 2016).

Data set [1] is described as follows: Static water contact angle of UV-cured phosphonium films with alumina microparticles. The class given is physicochemical. On the procedure: Solution ^1H, ^19F{^1H} and ^31P{^1H} NMR spectra were recorded on a Varian INOVA 400 MHz spectrometer (^1H; 400.09 MHz, ^31P; 161.82 MHz, ^19F; 376.15 MHz). All samples for ^1H NMR spectroscopy were referenced to the residual protons in the deuterated solvents (^1H: chloroform-d 7.26; acetone-d6 2.05). ^31P{^1H} and ^19F{^1H} NMR spectroscopic chemical shifts were reported relative to external standards (85% H3PO4: 0.00 ppm and CF3C6H5: −63.9 ppm). Mass spectrometry (MS) measurements were recorded in positive and negative ion modes using an electrospray ionization (ESI) Micromass LCT spectrometer. Infrared spectra were recorded using a Bruker Tensor 27 spectrometer from Bruker Optics Inc. Samples were measured by attenuated total reflectance (ATR) infrared spectroscopy, using a zinc selenide crystal. Melting points were determined using a Gallenkamp Variable Heater in air. Scanning electron microscope images of the surfaces were obtained using a Hitachi S-4500 field emission instrument, operated at an electron beam voltage of 10 kV equipped with a Quartz Xone EDX system. AFM was performed on a Park Systems XE-100 in air with a relative humidity of ˜40%. […] Water contact angles were measured on a Kruss DSA 100 with DSA drop shape analysis software. Using an automated dispensing system, static 5 μL droplets of distilled water were deposited in different areas upon the surface. The contact angles were measured on the left and right side of each drop on at least ten droplets, resulting in a minimum of twenty angles per film. The reported contact angle is the average of all measurements.
The general procedure for film preparation and curing was as follows: the chosen phosphonium salt (95%) and 1-hydroxycyclohexylphenylketone (CPK, 5%) were dissolved in acetone. Microparticles (when included) were then added to the solution, the resulting mixture insonated in a sonic bath (Elasmonic E 60H, 100 Watts) for 10 minutes and then applied to pre-treated polyester sheets (DuPont) with a pipette. A #10 wire Meyer rod (Gardco) was used to spread the mixture evenly across the polyester substrate, producing a wet thickness of approximately 25 μm. A UV-curing conveyor (UV Process Supply) was set to allow a time exposure of ˜3 s (UV-light irradiance over this time frame was measured at 760 mJ/cm^2). The substrate with the uncured film was taped to a metal sheet and passed through the UV-conveyor.

Data set [2] in a line: Water contact angle of UV-cured HDDA films containing HFPPS. The class given is physicochemical. The note with it: UV-cured film. On the procedure: Nuclear Magnetic Resonance (NMR) spectroscopy was conducted on a Varian INOVA 400 MHz spectrometer (^1H, 400.09 MHz, ^31P{^1H} 161.82 MHz, ^19F, 376.15 MHz). All ^1H spectra were referenced relative to tetramethyl silane (CDCl3; ^1H δH=7.26 ppm and CO(CD3)2; ^1H δH=2.04). The chemical shifts for ^31P{H} NMR spectroscopy were referenced using an external standard (85% H3PO4; δP=0). The chemical shifts for ^19F{^1H} NMR spectroscopy were also referenced using an external standard (trifluorotoluene; δF=−63.9 ppm). Infrared spectra were recorded using a Bruker Tensor 27 spectrometer using attenuated total reflectance mode (ATR) using a ZnSe crystal. Sonication of the UV curable formulations was conducted in an E60H Elmasonic sonicator at frequency of 37 kHz using an effective power of 100 W. Deposition of the formulation was performed using a 25-micron Meyer Rod purchased from Gardco on microscope slides purchased from Technologist Choice unless otherwise noted. UV curing was performed using a modified UV curing system purchased from UV Process and Supply Inc. with a mercury bulb. Samples were irradiated with an energy density of 1956 mJ/cm^2 and an irradiance of 1383 mW/cm^2. Water contact angles (WCA) were measured using a Kruss DSA100 Drop Shape Analyzer and analyzed using Drop Shape Analysis. Thermal degradation was determined using Thermal Gravimetric Analysis (TGA) on a Q600 SDT TA instrument. A sample of 5-15 mg was placed in an aluminum cup and heated at a rate of 10° C./min from room temperature to 600° C. under nitrogen atmosphere (100 mL/min). Glass transition temperatures were determined using Differential Scanning calorimetry (DSC) on a DSC Q20 TA instrument. A sample of approximately 10 mg was placed in an aluminum Tzero pan and underwent a heat/cool/heat profile at 10° C./min under nitrogen atmosphere (100 mL/min). Data was acquired from the final heat cycle of the heat/cool/heat profile. Melting points of all HFPS were determined using a Gallenkamp Variable Heater in air. Mass spectrometry was recorded in both positive and negative ion modes using electrospray ionization (ESI) Micromass LCT spectrometer. Elemental analysis (EA) was performed by the Elemental Analysis Laboratory at the Université de Montreal. Time-of-fight Secondary Ion Mass Spectrometry (TOF-SIMS) measurements were performed using an ION-TOF (Gmbh) TOF-SIMS IV equipped with a Bi cluster liquid metal ion source. A 25 keV Bi3^+ cluster primary pulsed ion beam (10 kHz, pulse width 20 ns) was used to bombard the surface to generate secondary ions. The positive or negative secondary ions were extracted from the sample surface, mass separated and detected via a reflectron-type time-of-flight analyser. Depth profiles were obtained by repeating the following cycle: sputtering an area of 500 μm×500 μm on the sample surface with a 3 keV Cs^+ ion beam for 0.5 s followed by, with a delay of 2 s, collecting mass spectra at 128×128 pixels with the Bi3^+ ion beam over an area of 245 μm×245 μm in the center of the sputtered area.
A desired amount of photoinitiator, crosslinker, and phosphonium salt were weighed and combined in screw top vials. The mixture was then insonated at 45° C. for 20 min until the solutions were free of particulate and haze. After cooling to room temperature, the solutions were cast on glass slides and irradiated with UV light three times.

Data set [3] in a line: Solubility/miscibility tests. Type of data set: physicochemical. On the procedure:
Approximately 5-10 mg of compound was added to a test tube followed by the addition of 1.5 mL of solvent followed by 5 seconds of gentle stirring. If dissolution was not observed immediately, the mixture was further stirred and sonicated for 30 seconds. Material was deemed soluble if the resulting solution was free of particulate and haze, determined by visual inspection. […] If solutions remained hazy, they were referred to as emulsion mixtures.

Data set [4] can be described thus: Density of surface phosphonium cations by UV-vis (fluorescein dye). The class given is physicochemical. The protocol: Characterization by FTIR-ATR spectroscopy confirmed the conversion of acrylate functionality post polymerization. Percent cure was determined using a literature procedure. The intensity of the acrylate vibration at 810 cm^−1 was compared to the C═O vibration at 1750 cm^−1 both before and after irradiation. […] The density of surface phosphonium cations was determined by UV-vis spectroscopy as described in a literature procedure.
Characterization by FTIR-ATR spectroscopy confirmed the conversion of acrylate functionality post polymerization. […] The density of surface phosphonium cations was determined by UV-vis spectroscopy as described in a literature procedure^23. […] This assumes a 1:1 ratio of positive and negative charge on the surface.
Before deposition of [Au25L18]^−, the number of accessible charges on the PPF was quantified. A known protocol utilizing fluorescein dye was employed to determine the value for the above system and to relate this quantity back to the percentage of phosphonium monomers that were included in the original formulation.^23 This procedure is commonly used as a characterization technique for films containing surface-bound quaternary salts. […] At 30 wt %, a dramatic increase in the number of quaternary charges was observed (1.5×10^15 cations/cm^2). Increasing the salt content to 37.5 and 47.5 wt % yielded surfaces with 8.2×10^15 and 1.4×10^16 cations/cm^2, respectively. […] Use of low melting phosphonium salts permits formation of a formulation having low viscosity despite the high ion content, allowing for ease of handling and deposition. Use of high melting point organic salts in a similar fashion generates formulations with relatively high viscosities or significant solubility issues, which manifest themselves in poor films. Advantages of the phosphonium-based acrylate monomer in the fabrication of the charged surfaces can thus be seen.

For data set [5], the system named is Bacteria. The data set is described as follows: Antimicrobial efficacy of [4]Cl films (same procedure, bacterium not given). Type of data set: cell-based. On the procedure:
A desired amount of 2-hydrox-2-methy-1-phenyl-propanone (5 wt %), diacrylate crosslinker (EB 130, a cyclic aliphatic diacrylate) and the acrylate-appended phosphonium salt were weighed and combined in screw top vials. The mixture was then insonated at 45° C. for 20 min until the solutions were free of particulate and haze. After cooling to room temperature, the solutions were cast on polyester films and irradiated with UV light three times. Leached films were treated with H2O (Milli-Q) in a wrist action shaker for 4 hours, followed by washing with H2O (2×10 mL) and air drying. Both leached and unleached films were subjected to the antibacterial test (below).
The antibacterial activities of the charged surfaces against Gram-negative bacteria Escherichia coli […] were studied using the antibacterial drop-test. E. coli precultured in 15 mL of nutrient broth (Difco™ BD) at 37° C. for 24 h, was washed by centrifuging at 4000 rpm for 10 min. After removing the supernatant, the cells were washed with phosphate buffered saline (PBS) twice and re-suspended and diluted to approximately 10^6 colony forming units (CFU)/mL in PBS solution. The samples were placed in sterilized Petri dishes. 100 μL of PBS solution with bacteria was added dropwise onto sterilized surfaces until completely covered. The petri dishes were sealed and placed in an incubator at 37° C. with the humidity 46%. After 4 hr, the bacteria were washed from the surface of the sample by using 10 mL PBS in the sterilized Petri dish. From this solution, 100 μL was spread onto solid plate count agar (Difco™ BD). After incubation for 24 h at 37° C., the number of surviving bacterial colonies on the Petri dishes were counted. The results after multiplication with the dilution factor were expressed as CFU per mL. The above experiments were carried out in triplicate for each sample. The percentage of killed bacteria was calculated as [(CFU of initial bacterial suspension−CFUs following surface contact)/CFU of initial bacterial suspension]×100.
As phosphonium content in the films increased, both an increase in surface charge density and bacterial activity was observed. […] The pronounced difference in films containing 25 and 30 wt % is believed to be due to differences in surface energy between EB 130 and the phosphonium salt. The non-polar nature of the crosslinking agent has lower surface energy than that of the phosphonium salt. […] Upon the addition of sufficient phosphonium salt, cations became present at the surface, as detected by the fluorescein dye experiment and exemplified by the increase in antibacterial efficacy. […] Films were prepared and analyzed following the same procedure.

The mark [6] stands for this setting: film with 50 w % Al2O3 microparticles (±3).
[7] abbreviates: particle-free UV-cured film of the salt with 5 w % CPK on polyester.

“Also recorded” adds a separate entry of the source.

For the compound `C=Cc1ccc(C[P+](CCC(F)(F)C(F)(F)C(F)(F)C(F)(F)F)(CCC(F)(F)C(F)(F)C(F)(F)C(F)(F)F)CC(C)CC(C)(C)C)cc1.[Cl-]` (stereo not drawn) [[1]Cl], the values for the WCA in data set [1] (setting [6]) and in data set [1] (setting [7]) were 88 ° and “≈ 80 °; also recorded: ≈ 90 °”, respectively.
As to `C=Cc1ccc(C[P+](CCC(F)(F)C(F)(F)C(F)(F)C(F)(F)F)(CCC(F)(F)C(F)(F)C(F)(F)C(F)(F)F)CCC(F)(F)C(F)(F)C(F)(F)C(F)(F)F)cc1.O=S(=O)([N-]S(=O)(=O)C(F)(F)F)C(F)(F)F` [[2]NTf2], the Water contact angle was determined as 80 ° in data set [2] (0.05 wt % in HDDA); 89 ° in data set [2] (0.1 wt % in HDDA); 91 ° in data set [2] (0.5 wt % in HDDA); 92 ° in data set [2] (1 wt % in HDDA); 92 ° in data set [2] (1.5 wt % in HDDA). Moreover, the WCA in data set [1] (setting [6]) is 141 °; in data set [1] (setting [7]) it was “≈ 90 °”.
Consider `C=Cc1ccc(C[P+](CCC(F)(F)C(F)(F)C(F)(F)C(F)(F)C(F)(F)C(F)(F)F)(CCC(F)(F)C(F)(F)C(F)(F)C(F)(F)C(F)(F)C(F)(F)F)CC(C)CC(C)(C)C)cc1.[Cl-]` (stereo not drawn) [[3]Cl], for which the “Solubility (in words)” value in data set [3] (chloroform) and in data set [3] (dichloromethane) was “soluble” each time.
Turning to `C=Cc1ccc(C[P+](CCC(F)(F)C(F)(F)C(F)(F)C(F)(F)F)(CCC(F)(F)C(F)(F)C(F)(F)C(F)(F)F)CC(C)CC(C)(C)C)cc1.O=S(=O)([N-]S(=O)(=O)C(F)(F)F)C(F)(F)F` (stereo not drawn) [[1]NTf2], the Water contact angle is recorded as 82 ° in data set [2] (0.1 wt % in HDDA), 84 ° in data set [2] (0.5 wt % in HDDA), 87 ° in data set [2] (1 wt % in HDDA) and 87 ° in data set [2] (1.5 wt % in HDDA). Moreover, the “Solubility (in words)” value in data set [3] (chloroform) and in data set [3] (dichloromethane) was “soluble” in each case.
As for `C=Cc1ccc(C[P+](CCC(F)(F)C(F)(F)C(F)(F)C(F)(F)F)(CCC(F)(F)C(F)(F)C(F)(F)C(F)(F)F)CCC(F)(F)C(F)(F)C(F)(F)C(F)(F)F)cc1.[Cl-]` [[2]Cl], the WCA result in data set [1] (setting [7]) is given as “≈ 80 °”.
For `C=CC(=O)OCCC[P+](CCCC)(CCCC)CCCC.[Cl-]` [[4]Cl, (3-(acryloyloxy)propyl)tributylphosphonium chloride], the Charge/Unit area is 0 ×10^x Y^+/cm^2 in data set [4] (15% [4]Cl film); 5.6 × 10^14 ×10^x Y^+/cm^2 in data set [4] (20% [4]Cl film); 3.46 × 10^15 ×10^x Y^+/cm^2 in data set [4] (25% [4]Cl film); 9.07 × 10^15 ×10^x Y^+/cm^2 in data set [4] (30% [4]Cl film); 1.24 × 10^16 ×10^x Y^+/cm^2 in data set [4] (37.5% [4]Cl film); 2.54 × 10^16 ×10^x Y^+/cm^2 in data set [4] (47.5% [4]Cl film). In addition, the “% Bacteria killed” value in data set [5] (15% [4]Cl film) is recorded as 18%; in data set [5] (20% [4]Cl film) it was 18%; in data set [5] (25% [4]Cl film) it was 71%; in data set [5] (30% [4]Cl film), 71%; in data set [5] (37.5% [4]Cl film), 75%; in data set [5] (47.5% [4]Cl film) it was 100%.
